Assay results reported in ChEMBL document CHEMBL5385855, “Design and synthesis of hederagenin derivatives modulating STING/NF-κB signaling for the relief of acute liver injury in septic mice” (2023).
Activity calls are given as the source filed them. The rule behind the calls is not given here.

Legend:
[1] = system: RAW264.7; assay: Cytotoxicity against mouse RAW264.7 cells assessed as reduction in cell viability at 40 uM incubated for 4 hrs by MTT assay; assay type: functional
[2] = system: Mus musculus; assay: Antiinflammatory activity against LPS-induced liver injury BALB/c mouse model assessed as reduction in ALT level in serum at 1 to 9 mg/kg, ip pretreated with compound for 3 days followed by LPS-induction and measured after 12 hrs; assay type: functional, organism-based; details: dose 1-9 mg/kg, time 3.5 day
[3] = biological target: T1, Stimulator of interferon genes protein (Mus musculus) (UniProt Q3TBT3); assay: Activation of STING signaling pathway in mouse RAW264.7 cells assessed as inhibition of LPS-induced p65 phosphorylation at 2.5 to 10 uM pretreated with compound for 2 hrs followed by LPS-induction and measured after 6 hrs by Western blot analysis; assay type: cell-based; details: filed as activator, dose 2.5-10 µM, time 8.0 hrs
T1 sequence (whole entry): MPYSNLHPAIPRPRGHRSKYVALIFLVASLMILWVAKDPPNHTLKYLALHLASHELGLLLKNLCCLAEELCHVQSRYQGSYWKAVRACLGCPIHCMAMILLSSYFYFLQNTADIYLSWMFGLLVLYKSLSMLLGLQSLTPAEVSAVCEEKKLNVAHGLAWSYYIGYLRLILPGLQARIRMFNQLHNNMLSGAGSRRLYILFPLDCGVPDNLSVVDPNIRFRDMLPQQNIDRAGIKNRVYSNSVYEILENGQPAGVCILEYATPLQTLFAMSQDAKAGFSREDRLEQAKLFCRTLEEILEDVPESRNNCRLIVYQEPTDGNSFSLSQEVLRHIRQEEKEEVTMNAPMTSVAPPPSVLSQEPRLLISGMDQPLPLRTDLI

[4] = system: Mus musculus; assay: In-vivo inhibition of STING/IRF3/NF-kappaB activation in liver septic mouse model assessed as reduction in IRF3 phosphorylation at 1 to 9 mg/kg, ip pretreated with compound for 3 days followed by LPS-induction and measured after 2 hrs by Western blotting analysis; assay type: functional, organism-based; details: dose 1-9 mg/kg, time 74.0 hrs
[5] = system: Mus musculus; assay: In-vivo inhibition of STING/IRF3/NF-kappaB activation in liver septic mouse model assessed as reduction in IkappaB-alpha phosphorylation at 1 to 9 mg/kg, ip pretreated with compound for 3 days followed by LPS-induction and measured after 2 hrs by Western blotting analysis; assay type: functional, organism-based; details: dose 1-9 mg/kg, time 74.0 hrs
[6] = system: Mus musculus; assay: Antiinflammatory activity against LPS-induced liver injury BALB/c mouse model assessed as reduction in TNF-alpha level in liver at 1 to 9 mg/kg, ip pretreated with compound for 3 days followed by LPS-induction and measured after 12 hrs; assay type: functional, organism-based; details: dose 1-9 mg/kg, time 3.5 day
[7] = biological target: T1, Stimulator of interferon genes protein (Mus musculus); assay: Activation of STING signaling pathway in mouse RAW264.7 cells assessed as inhibition of LPS-induced TBK1 phosphorylation at 2.5 to 10 uM pretreated with compound for 2 hrs followed by LPS-induction and measured after 6 hrs by Western blot analysis; assay type: cell-based; details: filed as activator, dose 2.5-10 µM, time 8.0 hrs
[8] = system: Mus musculus; assay: Antiinflammatory activity against LPS-induced liver injury BALB/c mouse model assessed as reduction in IL-6 level in liver at 1 to 9 mg/kg, ip pretreated with compound for 3 days followed by LPS-induction and measured after 12 hrs; assay type: functional, organism-based; details: dose 1-9 mg/kg, time 3.5 day
[9] = system: Mus musculus; assay: In-vivo inhibition of STING/IRF3/NF-kappaB activation in liver septic mouse model assessed as reduction in STING level at 1 to 9 mg/kg, ip pretreated with compound for 3 days followed by LPS-induction and measured after 2 hrs by Western blotting analysis; assay type: functional, organism-based; details: dose 1-9 mg/kg, time 74.0 hrs
[10] = system: Mus musculus; assay: Antiinflammatory activity against LPS-induced liver injury BALB/c mouse model assessed as reduction in AST level in serum at 1 to 9 mg/kg, ip pretreated with compound for 3 days followed by LPS-induction and measured after 12 hrs; assay type: functional, organism-based; details: dose 1-9 mg/kg, time 3.5 day
[11] = system: Mus musculus; assay: Antiinflammatory activity against LPS-induced liver injury BALB/c mouse model assessed as reduction in hemorrhage severity at 1 to 9 mg/kg, ip pretreated with compound for 3 days followed by LPS-induction and measured after 12 hrs by H and E staining based analysis; assay type: functional, organism-based; details: dose 1-9 mg/kg, time 3.5 day
[12] = biological target: T1, Stimulator of interferon genes protein (Mus musculus); assay: Activation of STING signaling pathway in mouse RAW264.7 cells assessed as inhibition of LPS-induced IRF3 phosphorylation at 2.5 to 10 uM pretreated with compound for 2 hrs followed by LPS-induction and measured after 6 hrs by Western blot analysis; assay type: cell-based; details: filed as activator, dose 2.5-10 µM, time 8.0 hrs
[13] = system: Mus musculus; assay: Antiinflammatory activity against LPS-induced liver injury BALB/c mouse model assessed as reduction in IFN-beta level in liver at 1 to 9 mg/kg, ip pretreated with compound for 3 days followed by LPS-induction and measured after 12 hrs; assay type: functional, organism-based; details: dose 1-9 mg/kg, time 3.5 day
[14] = system: Mus musculus; assay: Antiinflammatory activity against LPS-induced liver injury BALB/c mouse model assessed as reduction in ALP level in serum at 1 to 9 mg/kg, ip pretreated with compound for 3 days followed by LPS-induction and measured after 12 hrs; assay type: functional, organism-based; details: dose 1-9 mg/kg, time 3.5 day
[15] = biological target: T1, Stimulator of interferon genes protein (Mus musculus); assay: Activation of STING signaling pathway in mouse RAW264.7 cells assessed as inhibition of LPS-induced IkappaB-alpha phosphorylation at 2.5 to 10 uM pretreated with compound for 2 hrs followed by LPS-induction and measured after 6 hrs by Western blot analysis; assay type: cell-based; details: filed as activator, dose 2.5-10 µM, time 8.0 hrs
[16] = system: Mus musculus; assay: In-vivo inhibition of STING/IRF3/NF-kappaB activation in liver septic mouse model assessed as reduction in TBK phosphorylation at 1 to 9 mg/kg, ip pretreated with compound for 3 days followed by LPS-induction and measured after 2 hrs by Western blotting analysis; assay type: functional, organism-based; details: dose 1-9 mg/kg, time 74.0 hrs
[17] = system: Mus musculus; assay: In-vivo inhibition of STING/IRF3/NF-kappaB activation in liver septic mouse model assessed as reduction in p65 phosphorylation at 1 to 9 mg/kg, ip pretreated with compound for 3 days followed by LPS-induction and measured after 2 hrs by Western blotting analysis; assay type: functional, organism-based; details: dose 1-9 mg/kg, time 74.0 hrs
[18] = system: RAW264.7; assay: Antiinflammatory activity in mouse RAW264.7 cells assessed as reduction in LPS-induced IFN-beta level at 20 uM preincubated with compound for 2 hrs followed by LPS stimulation and measured after 6 hrs by ELISA analysis; assay type: functional, cell-based; details: time 8.0 hrs
[19] = system: RAW264.7; assay: Antiinflammatory activity in mouse RAW264.7 cells assessed as inhibition of LPS-induced NO production at 20 uM preincubated with compound for 2 hrs followed by LPS stimulation and measured after 24 hrs by Griess reagent based analysis; assay type: functional, cell-based; details: time 26.0 hrs
[20] = system: RAW264.7; assay: Antiinflammatory activity in mouse RAW264.7 cells assessed as reduction in LPS-induced TNF-alpha level at 20 uM preincubated with compound for 2 hrs followed by LPS stimulation and measured after 6 hrs by ELISA analysis; assay type: functional, cell-based; details: time 8.0 hrs
[21] = system: RAW264.7; assay: Antiinflammatory activity in mouse RAW264.7 cells assessed as inhibition of LPS-induced iNOS expression at 20 uM preincubated with compound for 2 hrs followed by LPS stimulation and measured after 6 hrs by ELISA analysis; assay type: functional, cell-based; details: time 8.0 hrs
[22] = biological target: T1, Stimulator of interferon genes protein (Mus musculus); assay: Binding affinity to STING in mouse RAW264.7 cells assessed as thermal stabilization at 49 to 55 degree C at 5 to 50 uM measured for 12 hrs by cellular thermal shift assay; assay type: cell-based; details: filed as modulator, dose 5-50 µM
[23] = system: RAW264.7; assay: Antiinflammatory activity in mouse RAW264.7 cells assessed as reduction in LPS-induced IL-6 level at 20 uM preincubated with compound for 2 hrs followed by LPS stimulation and measured after 6 hrs by ELISA analysis; assay type: functional, cell-based; details: time 8.0 hrs

Structure (SMILES): CC1(C)CC[C@]2(C(=O)OCc3ccccc3)CC[C@]3(C)C(=CC[C@@H]4[C@@]5(C)Cc6nccnc6[C@@](C)(COC(=O)CCC(=O)n6cccn6)[C@@H]5CC[C@]43C)[C@@H]2C1
- Activity [1]: <90%

Structure (SMILES): CCOC(=O)c1noc2c1C[C@@]1(C)[C@@H](CC[C@]3(C)[C@@H]1CC=C1[C@@H]4CC(C)(C)CC[C@]4(C(=O)OCc4ccccc4)CC[C@]13C)[C@]2(C)COC(=O)CCC(=O)O
- Activity [1]: >90%

Structure (SMILES): O=C(Nc1ccc(I)cc1)c1ccc([N+](=O)[O-])o1
- Activity [2]: Active
- Activity [3]: Active
- inhibition [4]: Active
- inhibition [5]: Active
- Activity [6]: Active
- Activity [7]: Active
- Activity [8]: Active
- inhibition [9]: Active
- Activity [10]: Active
- Activity [11]: Active
- Activity [12]: Active
- Activity [13]: Active
- Activity [14]: Active
- Activity [15]: Active
- inhibition [16]: Active
- inhibition [17]: Active

Structure (SMILES): CC1(C)CC[C@]2(C(=O)O)CC[C@]3(C)C(=CC[C@@H]4[C@@]5(C)Cc6nccnc6[C@@](C)(CO)[C@@H]5CC[C@]43C)[C@@H]2C1
- Activity [2]: Active
- Activity [3]: Active
- Activity [18]: Active
- inhibition [4]: Active
- inhibition [5]: Active
- Activity [19]: Active
- Activity [20]: Active
- Activity [6]: Active
- Activity [1]: >90%
- Activity [7]: Active
- Activity [21]: Active
- Activity [8]: Active
- inhibition [9]: Active
- Activity [10]: Active
- Activity [11]: Active
- Activity [12]: Active
- Activity [13]: Active
- Activity [22]: Active
- Activity [14]: Active
- Activity [15]: Active
- Activity [23]: Active
- inhibition [16]: Active
- inhibition [17]: Active

Structure (SMILES): CC1(C)CC[C@]2(C(=O)N3CCCC3C(=O)O)CC[C@]3(C)C(=CC[C@@H]4[C@@]5(C)Cc6nccnc6[C@@](C)(CO)[C@@H]5CC[C@]43C)[C@@H]2C1 (some centres not stated)
- Activity [19]: Active
- Activity [1]: >90%

Structure (SMILES): CC1(C)CC[C@]2(C(=O)OCc3ccccc3)CC[C@]3(C)C(=CC[C@@H]4[C@@]5(C)Cc6nccnc6[C@@](C)(COC(=O)CCC(=O)n6nnc7ccccc76)[C@@H]5CC[C@]43C)[C@@H]2C1
- Activity [1]: <90%

Structure (SMILES): CC1(C)CC[C@]2(C(=O)OCc3ccccc3)CC[C@]3(C)C(=CC[C@@H]4[C@@]5(C)Cc6nccnc6[C@@](C)(COC(=O)CCC(=O)N6CCCC6)[C@@H]5CC[C@]43C)[C@@H]2C1
- Activity [1]: <90%

Structure (SMILES): CN1CCN(C(=O)CCC(=O)OC[C@]2(C)c3nccnc3C[C@@]3(C)[C@H]2CC[C@]2(C)[C@@H]3CC=C3[C@@H]4CC(C)(C)CC[C@]4(C(=O)OCc4ccccc4)CC[C@]32C)CC1
- Activity [1]: <90%

Structure (SMILES): CC1(C)CC[C@]2(C(=O)OCc3ccccc3)CC[C@]3(C)C(=CC[C@@H]4[C@@]5(C)Cc6nccnc6[C@@](C)(COC(=O)CCC(=O)Nc6ncn[nH]6)[C@@H]5CC[C@]43C)[C@@H]2C1
- Activity [1]: <90%

Structure (SMILES): CC1(C)CC[C@]2(C(=O)N3CCOCC3)CC[C@]3(C)C(=CC[C@@H]4[C@@]5(C)Cc6nccnc6[C@@](C)(CO)[C@@H]5CC[C@]43C)[C@@H]2C1
- Activity [19]: Active
- Activity [1]: >90%

Structure (SMILES): CC1(C)CC[C@]2(C(=O)OCc3ccccc3)CC[C@]3(C)C(=CC[C@@H]4[C@@]5(C)Cc6nccnc6[C@@](C)(COC(=O)CCC(=O)N6CCOCC6)[C@@H]5CC[C@]43C)[C@@H]2C1
- Activity [1]: <90%

Structure (SMILES): CCOC(=O)c1noc2c1C[C@@]1(C)[C@@H](CC[C@]3(C)[C@@H]1CC=C1[C@@H]4CC(C)(C)CC[C@]4(C(=O)OCc4ccccc4)CC[C@]13C)[C@]2(C)CO
- Activity [1]: >90%

Structure (SMILES): CC1(C)CC[C@]2(C(=O)OCc3ccccc3)CC[C@]3(C)C(=CC[C@@H]4[C@@]5(C)Cc6nccnc6[C@@](C)(COC(=O)CCC(=O)N6CCCCC6)[C@@H]5CC[C@]43C)[C@@H]2C1
- Activity [19]: Active
- Activity [1]: >90%

Structure (SMILES): CC(C)CC(NC(=O)[C@]12CCC(C)(C)C[C@H]1C1=CC[C@@H]3[C@@]4(C)Cc5nccnc5[C@@](C)(CO)[C@@H]4CC[C@@]3(C)[C@]1(C)CC2)C(=O)O (some centres not stated)
- Activity [1]: >90%

Structure (SMILES): Cc1nc2c(s1)C[C@@]1(C)[C@@H](CC[C@]3(C)[C@@H]1CC=C1[C@@H]4CC(C)(C)CC[C@]4(C(=O)O)CC[C@]13C)[C@]2(C)CO
- Activity [1]: >90%

Structure (SMILES): CC1(C)CC[C@]2(C(=O)NC(Cc3ccccc3)C(=O)O)CC[C@]3(C)C(=CC[C@@H]4[C@@]5(C)Cc6nccnc6[C@@](C)(CO)[C@@H]5CC[C@]43C)[C@@H]2C1 (some centres not stated)
- Activity [19]: Active
- Activity [1]: >90%
